Reference: paper PMC10882719 (Frontiers in Neuroscience, 2024)
Read-outs that look alike come from different tables or passages of the source.

How the values were obtained:
Type in all cases: cell-based
[1] = molecular target: T1, 168 GPCRs (Homo sapiens, UniProt Q96RI0)
T1 construct: host or cells: PathHunter cell lines
T1 sequence (Q96RI0 18-385): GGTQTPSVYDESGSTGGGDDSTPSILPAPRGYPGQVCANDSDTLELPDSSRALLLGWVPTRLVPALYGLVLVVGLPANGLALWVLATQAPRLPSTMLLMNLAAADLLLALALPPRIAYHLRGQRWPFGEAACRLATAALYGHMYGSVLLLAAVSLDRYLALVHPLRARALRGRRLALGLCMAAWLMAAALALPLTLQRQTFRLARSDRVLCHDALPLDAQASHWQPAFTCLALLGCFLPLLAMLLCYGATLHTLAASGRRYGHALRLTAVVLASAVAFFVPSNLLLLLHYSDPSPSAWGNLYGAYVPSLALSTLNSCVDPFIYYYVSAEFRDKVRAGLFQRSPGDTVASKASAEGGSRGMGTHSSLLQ

[2] = molecular target: T2, 168 GPCRs (Homo sapiens, UniProt P48145)
T2 construct: host or cells: PathHunter cell lines
T2 sequence (P48145 1-328): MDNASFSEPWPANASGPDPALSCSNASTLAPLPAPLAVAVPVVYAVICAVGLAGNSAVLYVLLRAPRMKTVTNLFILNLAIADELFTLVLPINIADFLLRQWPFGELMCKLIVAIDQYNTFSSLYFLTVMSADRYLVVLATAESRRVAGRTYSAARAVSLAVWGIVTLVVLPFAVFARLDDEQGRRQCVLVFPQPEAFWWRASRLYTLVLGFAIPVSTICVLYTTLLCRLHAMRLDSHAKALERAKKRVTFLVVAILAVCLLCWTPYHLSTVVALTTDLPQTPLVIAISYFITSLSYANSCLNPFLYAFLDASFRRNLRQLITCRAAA

[3] = molecular target: T3, 168 GPCRs (Homo sapiens, UniProt Q96G91); settings: P2RY11
T3 construct: host or cells: PathHunter cell lines
T3 sequence (Q96G91 1-374): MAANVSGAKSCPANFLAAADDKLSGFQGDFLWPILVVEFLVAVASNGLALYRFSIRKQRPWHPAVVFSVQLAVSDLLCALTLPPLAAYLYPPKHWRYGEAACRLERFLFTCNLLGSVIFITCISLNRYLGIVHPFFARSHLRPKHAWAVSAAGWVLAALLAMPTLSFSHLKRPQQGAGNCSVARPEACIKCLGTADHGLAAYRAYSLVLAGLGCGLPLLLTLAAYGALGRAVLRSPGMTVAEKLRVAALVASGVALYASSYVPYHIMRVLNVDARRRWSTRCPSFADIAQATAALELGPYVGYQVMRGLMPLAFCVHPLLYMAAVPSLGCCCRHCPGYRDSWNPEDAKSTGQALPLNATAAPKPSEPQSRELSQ

[4] = molecular target: T4, 168 GPCRs (Homo sapiens, UniProt Q96P65)
T4 construct: host or cells: PathHunter cell lines
T4 sequence (Q96P65 1-431): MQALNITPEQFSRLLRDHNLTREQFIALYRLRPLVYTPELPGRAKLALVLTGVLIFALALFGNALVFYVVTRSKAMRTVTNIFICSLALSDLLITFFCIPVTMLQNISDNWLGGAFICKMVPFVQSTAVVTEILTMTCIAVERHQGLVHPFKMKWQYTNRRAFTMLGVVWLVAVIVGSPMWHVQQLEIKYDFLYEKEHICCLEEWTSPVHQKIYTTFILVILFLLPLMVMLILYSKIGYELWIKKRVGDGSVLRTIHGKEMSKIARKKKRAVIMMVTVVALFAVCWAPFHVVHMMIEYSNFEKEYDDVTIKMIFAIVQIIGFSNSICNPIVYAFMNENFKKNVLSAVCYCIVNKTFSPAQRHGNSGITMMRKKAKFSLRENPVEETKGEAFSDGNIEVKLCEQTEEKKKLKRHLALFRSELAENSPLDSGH

[5] = molecular target: T5, 168 GPCRs (Homo sapiens, UniProt P51679)
T5 construct: host or cells: PathHunter cell lines
T5 sequence (P51679 1-360): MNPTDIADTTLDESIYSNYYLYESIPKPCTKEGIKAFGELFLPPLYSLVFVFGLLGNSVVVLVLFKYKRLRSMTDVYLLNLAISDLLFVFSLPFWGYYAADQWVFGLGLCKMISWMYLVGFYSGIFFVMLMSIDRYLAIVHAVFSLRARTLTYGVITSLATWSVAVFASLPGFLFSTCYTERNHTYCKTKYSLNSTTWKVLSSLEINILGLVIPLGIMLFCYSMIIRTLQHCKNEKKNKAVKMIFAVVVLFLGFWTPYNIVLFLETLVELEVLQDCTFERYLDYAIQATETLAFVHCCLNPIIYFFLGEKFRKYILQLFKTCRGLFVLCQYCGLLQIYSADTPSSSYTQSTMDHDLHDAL

[6] = molecular target: T6, 168 GPCRs (Homo sapiens, UniProt P07550)
T6 construct: host or cells: PathHunter cell lines
T6 sequence (P07550 whole entry): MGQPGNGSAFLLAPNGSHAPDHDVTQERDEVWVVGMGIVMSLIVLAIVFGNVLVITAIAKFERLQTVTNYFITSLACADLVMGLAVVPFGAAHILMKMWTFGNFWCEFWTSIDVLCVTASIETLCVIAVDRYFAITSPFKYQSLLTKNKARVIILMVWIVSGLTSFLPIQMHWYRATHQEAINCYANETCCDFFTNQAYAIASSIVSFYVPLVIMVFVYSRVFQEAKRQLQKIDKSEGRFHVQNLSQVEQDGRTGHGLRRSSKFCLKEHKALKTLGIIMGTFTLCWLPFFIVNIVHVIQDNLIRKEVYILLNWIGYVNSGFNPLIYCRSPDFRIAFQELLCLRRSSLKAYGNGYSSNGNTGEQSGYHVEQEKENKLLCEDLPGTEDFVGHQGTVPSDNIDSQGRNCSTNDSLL

Row | SMILES | % Agonist Activity ([1]; F2RL3, 1 uM) [%] | % Antagonist Activity ([1]; F2RL3, 1 uM) [%] | % Agonist Activity ([1]; F2RL3, 10 uM) [%] | % Antagonist Activity ([1]; F2RL3, 10 uM) [%] | % Agonist Activity ([2]; NPBWR1, 1 uM) [%] | % Antagonist Activity ([2]; NPBWR1, 1 uM) [%] | % Agonist Activity ([2]; NPBWR1, 10 uM) [%] | % Antagonist Activity ([2]; NPBWR1, 10 uM) [%] | % Agonist Activity ([3]; Conc 1 uM) [%] | % Antagonist Activity ([3]; Conc 1 uM) [%] | % Agonist Activity ([3]; Conc 10 uM) [%] | % Antagonist Activity ([3]; Conc 10 uM) [%] | % Agonist Activity ([4]; GPR103, 1 uM) [%] | % Antagonist Activity ([4]; GPR103, 1 uM) [%] | % Agonist Activity ([4]; GPR103, 10 uM) [%] | % Antagonist Activity ([4]; GPR103, 10 uM) [%] | % Agonist Activity ([5]; CCR4, 1 uM) [%] | % Antagonist Activity ([5]; CCR4, 1 uM) [%] | % Agonist Activity ([5]; CCR4, 10 uM) [%] | % Antagonist Activity ([5]; CCR4, 10 uM) [%] | further results
1 | CNC(C)C(=O)c1ccc2c(c1)OCO2 (stereo not drawn) [methylone] | 4.3 | -11.3 | 7 | -6.9 | 1.6 | 17.1 | -1.9 | 25.1 | 0.5 | 2.7 | -0.3 | 6.6 | 0.8 | 4.1 | 3.1 | 7 | -0.5 | 10 | -1.4 | 9.5 | % Agonist Activity ([6]; ADRB2, 1 uM): 0%; % Antagonist Activity ([6]; ADRB2, 1 uM): 18.1%; % Agonist Activity ([6]; ADRB2, 10 uM): -0.2%; % Antagonist Activity ([6]; ADRB2, 10 uM): 20.4%
2 | CNC(C)Cc1ccc2c(c1)OCO2 (stereo not drawn) [MDMA, 3,4-Methylenedioxy methamphetamine, reference compound] | 10.8 | 9.6 | 8.5 | 13.3 | -10.2 | -7.5 | -13.4 | -8.5 | 0.3 | 17.9 | 0.7 | 9 | -4.2 | -15.2 | -6.5 | -17.1 | 0.1 | 7.7 | 0.1 | 13 | % Agonist Activity ([6]; ADRB2, 1 uM): 2%; % Antagonist Activity ([6]; ADRB2, 1 uM): 31.9%; % Agonist Activity ([6]; ADRB2, 10 uM): 1.5%; % Antagonist Activity ([6]; ADRB2, 10 uM): 45.7%
